Measurements from patent US10632127B2, “Targeted notch pathway inhibitors” (Hoffmann-La Roche Inc., priority 2015, dated 2020).
Like-named read-outs stand apart in the source and are kept apart here. Blank lines part the entries; values can stand above or below the molecule they belong to.

Experiments:
[1] = Pharmacokinetic assessment in male Wistar rats (i.v.); type: in vivo, rat; conditions: for 8 in kidney, relative amount (arbitrarily set to 100%) / 8 in liver, relative amount (kidney = 100%) / concentration at 0.25 h / concentration at 1.25 h / concentration at 2.2 h / concentration at 7 h: 8 3.5 mg/kg i.v.; for concentration at 0.25 h / concentration at 1.25 h / concentration at 2.2 h / concentration at 7 h: rat, iv
Procedure: (§1) For PK evaluation, the compounds were administered i.p to male C57BL/6 mice in suspension (gelatine/saline 7.5%/0.62% in water) using an administration volume of 4 mL/kg. Blood samples were collected in tubes containing EDTA, plasma was separated by centrifugation and stored at −80° C. Liver and kidney samples (˜100 mg aliquots) were homogenized in three volumes of water using Precellys tissue homogenization tubes (precellys.com). 25 μL of each tissue homogenate was further diluted with 25 μL blank plasma to produce the final tissue homogenate for extraction. All samples were analyzed using protein precipitation followed by LC-MS/MS analysis. Briefly, 50 μL plasma or final tissue homogenate were mixed with 50 μL 0.5M HClO4/acetonitrile 9/1 (containing 200 ng/mL internal standard bosentan). Samples were stirred and 300 μL water was added followed by centrifugation at 5600 rpm (4° C., 10 min). 10 μL supernatant was analyzed by LC/MS analysis. Calibration standards in plasma were prepared the same way. The LC column and conditions used were: Phenomenex, Polar RP, 4 μm, 50×2.1 mm at 0.4 mL/min flow rate with a 3 min gradient from 95% solvent A to 95% solvent B (Solvent A: Water/ACN/HCOOH, 90:10:0.1+10 mM NH4 formate; Solvent B: Water/ACN/HCOOH, 10:90:0.1+10 mM NH4 formate). Mass spectrometric conditions were: Thermo TSQ Vantage with positive heated electrospray ionization in MS/MS mode. Compounds mass transitions monitored were m/z 320.7 to 119.9. PK parameters for all studies were calculated using Phoenix WinNonlin Software.
We next determined the stability, tissue distribution and cleavage rate in plasma, liver and kidney of the designed prodrugs in male Wistar rats. In the in vivo screen, the kinetics and distribution of the prodrugs Ac-γ-Glu-SecrI (13a) and Ac-γ-Glu-O-SecrI (13c) were compared with the active γ-secretase inhibitor SecrI (8). After i.v. administration in male Wistar rats, the disappearance of the prodrugs and the formation of the active amine-SecrI (11a), amine-O-SecrI (11b) and SecrI (8) were compared in plasma, liver and kidney (Table 7A-C). First, we determined the pharmacokinetics (PK) behavior of SecrI (8) following i.v. administration (Table 7A). […] Liver and kidney exposure were much higher, with same exposure in liver and kidney. […] The selectivity towards kidney stayed constant over time. The carbonate analogue Ac-γ-Glu-O-SecrI (13c) prodrug was converted to a lower extent than the Ac-γ-Glu-SecrI (13a) to amine-O-SecrI (11b) but more to the linker free γ-secretase inhibitor 8 (Table 7C).
Plasma and tissue concentrations of administered compound (A-C) and formed amine-SecrI (11a), amine-O-SecrI (11b) or SecrI (8) (B-C) were determined following i.v. administration in rats (no standard deviation given due to sparse sampling; n≤3 rats per time point). Numbers in parentheses represent relative amounts with the exposure of kidney arbitrarily set at each time point to 100%. […] BQL=below quantifiable limit.

[2] = Pharmacokinetic assessment in C57BL/6 healthy wild-type mice (i.p.); type: in vivo, mouse; conditions: C57BL/6 mice; for concentration at 0.5 h / concentration at 4 h / concentration at 7 h: male, mouse, ip
Procedure: as §1
We next determined the stability, tissue distribution and cleavage rate in plasma, liver and kidney of the designed prodrugs in non-diseased mice. In the in vivo screen, the kinetics and distribution of γ-secretase inhibitor prodrugs Ac-γ-Glu-SecrI (13a), Ac-α-Glu-SecrI (15a) and H-α-Glu-SecrI (15b) were compared with the active γ-secretase inhibitor amine-SecrI (11a). After i.p administration (10 mg/kg) in C57BL/6 mice, the disappearance of the prodrugs and the formation of the active amine-SecrI (11a) were compared in plasma, liver and kidney (Table 5). First, we determined the pharmacokinetics (PK) behavior of amine-SecrI (11a) following i.p. administration (Table 5A). […] Liver and kidney exposure were much higher, with approximately 4.5-fold higher exposure in liver compared to kidney. […] The selectivity towards kidney appeared to decrease over time, probably due to fast clearance and re-equilibration of the amine-SecrI (11a). However, the high selectivity at earlier time-points assured that the total exposure over time was much higher in the kidney compared to the liver.

[3] = kidney, 10 mg/kg i.p., 0.5 h, read-out: Kidney concentration of administered compound
[4] = kidney, 10 mg/kg i.p., 4 h, read-out: Kidney concentration of administered compound
[5] = kidney, 10 mg/kg i.p., 7 h, read-out: Kidney concentration of administered compound
[6] = liver, 10 mg/kg i.p., 0.5 h, read-out: Liver concentration of administered compound
[7] = liver, 10 mg/kg i.p., 4 h, read-out: Liver concentration of administered compound
[8] = liver, 10 mg/kg i.p., 7 h, read-out: Liver concentration of administered compound
[9] = plasma, 10 mg/kg i.p., 0.5 h, read-out: Plasma concentration of administered compound
[10] = plasma, 10 mg/kg i.p., 7 h, read-out: Plasma concentration of administered compound

SMILES: C[C@H]1Oc2ccc(F)cc2N(CCO)C(=O)[C@H]1NC(=O)[C@@](C)(O)C(=O)NCC(F)(F)C(F)(F)F [Compound 8, N-[(6R,7S)-2-Fluoro-9-(2-hydroxy-ethyl)-6-methyl-8-oxo-6,7,8,9-tetrahydro-5-oxa-9-aza-benzocyclohepten-7-yl]-2-(S)-hydroxy-2-methyl-N′-(2,2,3,3,3-pentafluoro-propyl)-malonamide]
8 in kidney, relative amount (arbitrarily set to 100%) ([1]; 0.25 h): (100) %
8 in liver, relative amount (kidney = 100%) ([1]; 0.25 h): (93) %
8 in kidney, relative amount (arbitrarily set to 100%) ([1]; 1.25 h): (100) %
8 in liver, relative amount (kidney = 100%) ([1]; 1.25 h): (101) %
8 in kidney, relative amount (arbitrarily set to 100%) ([1]; 2.2 h): (100) %
8 in liver, relative amount (kidney = 100%) ([1]; 2.2 h): (133) %
8 in kidney, relative amount (arbitrarily set to 100%) ([1]; 7 h): (100) %
8 in liver, relative amount (kidney = 100%) ([1]; 7 h): (126) %
Plasma concentration of formed 8 ([1]; 13c 1.5 mg/kg i.v., 4 h): BQL
Formed 8 in kidney, relative amount (arbitrarily set to 100%) ([1]; 13c 1.5 mg/kg i.v., 7 h): (100) %
Formed 8 in liver, relative amount (kidney = 100%) ([1]; 13c 1.5 mg/kg i.v., 7 h): (43) %
Plasma concentration of formed 8 ([1]; 13c 1.5 mg/kg i.v., 7 h): BQL
kidney selectivity, in words ([1]; formed after 13c i.v.): only a moderate kidney selectivity
plasma clearance, in words ([1]; i.v.): rapid plasma clearance
plasma exposure, in words ([1]; i.v.): good plasma exposure
concentration at 0.25 h ([1]; kidney, 0.25 h, read-out: Kidney concentration of 8): 3320 ng/g
concentration at 1.25 h ([1]; kidney, 1.25 h, read-out: Kidney concentration of 8): 844 ng/g
concentration at 2.2 h ([1]; kidney, 2.2 h, read-out: Kidney concentration of 8): 225 ng/g
concentration at 7 h ([1]; kidney, 7 h, read-out: Kidney concentration of 8): 92.4 ng/g
concentration at 0.25 h ([1]; liver, 0.25 h, read-out: Liver concentration of 8): 3100 ng/g
concentration at 1.25 h ([1]; liver, 1.25 h, read-out: Liver concentration of 8): 852 ng/g
concentration at 2.2 h ([1]; liver, 2.2 h, read-out: Liver concentration of 8): 298 ng/g
concentration at 7 h ([1]; liver, 7 h, read-out: Liver concentration of 8): 116 ng/g
concentration at 0.25 h ([1]; plasma, 0.25 h, read-out: Plasma concentration of 8): 964 ng/mL
concentration at 1.25 h ([1]; plasma, 1.25 h, read-out: Plasma concentration of 8): 198 ng/mL
concentration at 2.2 h ([1]; plasma, 2.2 h, read-out: Plasma concentration of 8): 39.7 ng/mL
concentration at 7 h ([1]; plasma, 7 h, read-out: Plasma concentration of 8): 18.4 ng/mL

SMILES: C[C@H]1Oc2ccc(F)cc2N(CCOC(=O)NCCN)C(=O)[C@H]1NC(=O)[C@@](C)(O)C(=O)NCC(F)(F)C(F)(F)F.Cl [Compound 11a, 2-((2R,3S)-7-Fluoro-3-((S)-2-hydroxy-2-methyl-3-oxo-3-(2,2,3,3,3-pentafluoropropylamino)propanamido)-2-methyl-4-oxo-3,4-dihydrobenzo[b][1,4]oxazepin-5(2H)-yl)ethyl 2-aminoethylcarbamate hydrochloride]
hydrolysis of the linker in 11a to the free antagonist 8 ([2]; 10 mg/kg i.p.): never observed significant amounts
plasma exposure, in words ([2]; 10 mg/kg i.p.): very low plasma exposure
exposure in liver compared to kidney ([2]; 11a 10 mg/kg i.p.): approximately 4.5 fold
11a in kidney, relative amount (arbitrarily set to 100%) ([2]; 11a 10 mg/kg i.p., 0.5 h): (100) %
11a in liver, relative amount (11a in kidney = 100%) ([2]; 11a 10 mg/kg i.p., 0.5 h): (450) %
11a in kidney, relative amount (arbitrarily set to 100%) ([2]; 11a 10 mg/kg i.p., 4 h): (100) %
11a in liver, relative amount (11a in kidney = 100%) ([2]; 11a 10 mg/kg i.p., 4 h): (250) %
11a in kidney, relative amount (arbitrarily set to 100%) ([2]; 11a 10 mg/kg i.p., 7 h): (100) %
11a in liver, relative amount (11a in kidney = 100%) ([2]; 11a 10 mg/kg i.p., 7 h): (290) %
formed 11a in plasma at all time-points ([2]; after 13a 10 mg/kg i.p.): below the limit of quantitation
Plasma concentration of formed 11a ([2]; after 13a 10 mg/kg i.p., 0.5 h): BQL
Plasma concentration of formed 11a ([2]; after 13a 10 mg/kg i.p., 4 h): BQL
Plasma concentration of formed 11a ([2]; after 13a 10 mg/kg i.p., 7 h): BQL
Plasma concentration of formed 11a ([2]; after 15b 10 mg/kg i.p., 7 h): BQL
concentration at 0.5 h [2, 3]: 15500 ng/g
concentration at 4 h [2, 4]: 1200 ng/g
concentration at 7 h [2, 5]: 420 ng/g
concentration at 0.5 h [2, 6]: 70000 ng/g
concentration at 4 h [2, 7]: 3000 ng/g
concentration at 7 h [2, 8]: 1200 ng/g
concentration at 0.5 h [2, 9]: 97.8 ng/mL
concentration at 4 h ([2]; plasma, 10 mg/kg i.p., 4 h, read-out: Plasma concentration of administered compound): 1.32 ng/mL
concentration at 7 h [2, 10]: 2.08 ng/mL
Plasma concentration of formed 11a ([1]; 13a 1.6 mg/kg i.v., 0.25 h): BQL
Plasma concentration of formed 11a ([1]; 13a 1.6 mg/kg i.v., 0.5 h): BQL
Plasma concentration of formed 11a ([1]; 13a 1.6 mg/kg i.v., 4 h): BQL
Liver concentration of formed 11a ([1]; 13a 1.6 mg/kg i.v., 7 h): BQL
Plasma concentration of formed 11a ([1]; 13a 1.6 mg/kg i.v., 7 h): BQL

conversion to amine-SecrI (11a), in words ([2]; 10 mg/kg i.p.): much lower extent
Plasma concentration of administered compound ([2]; 10 mg/kg i.p., 4 h): BQL
concentration at 0.5 h [2, 3]: 7540 ng/g
concentration at 4 h [2, 4]: 81 ng/g
concentration at 7 h [2, 5]: 33.8 ng/g
concentration at 0.5 h [2, 6]: 7220 ng/g
concentration at 4 h [2, 7]: 2850 ng/g
concentration at 7 h [2, 8]: 737 ng/g
concentration at 0.5 h [2, 9]: 573 ng/mL
concentration at 7 h [2, 10]: 6.29 ng/mL
SMILES: CC(=O)N[C@@H](CCC(=O)O)C(=O)NCCNC(=O)OCCN1C(=O)[C@@H](NC(=O)[C@@](C)(O)C(=O)NCC(F)(F)C(F)(F)F)[C@@H](C)Oc2ccc(F)cc21 [Compound 15a, (S)-4-acetamido-5-(2-((2-((2R,3S)-7-fluoro-3-((S)-2-hydroxy-2-methyl-3-oxo-3-(2,2,3,3,3-pentafluoropropylamino)propanamido)-2-methyl-4-oxo-3,4-dihydrobenzo[b][1,4]oxazepin-5(2H)-yl)ethoxy)carbonylamino)ethylamino)-5-oxopentanoic acid]
